# Results as given in patent US4946864A, “Novel HMG-CoA reductase inhibitors” (Merck & Co., Inc., priority 1988, dated 1990).
# Target: T1, HMG-CoA reductase (Rattus norvegicus, UniProt P51639)
# T1 construct: from tissue
# T1 sequence (P51639 1-887): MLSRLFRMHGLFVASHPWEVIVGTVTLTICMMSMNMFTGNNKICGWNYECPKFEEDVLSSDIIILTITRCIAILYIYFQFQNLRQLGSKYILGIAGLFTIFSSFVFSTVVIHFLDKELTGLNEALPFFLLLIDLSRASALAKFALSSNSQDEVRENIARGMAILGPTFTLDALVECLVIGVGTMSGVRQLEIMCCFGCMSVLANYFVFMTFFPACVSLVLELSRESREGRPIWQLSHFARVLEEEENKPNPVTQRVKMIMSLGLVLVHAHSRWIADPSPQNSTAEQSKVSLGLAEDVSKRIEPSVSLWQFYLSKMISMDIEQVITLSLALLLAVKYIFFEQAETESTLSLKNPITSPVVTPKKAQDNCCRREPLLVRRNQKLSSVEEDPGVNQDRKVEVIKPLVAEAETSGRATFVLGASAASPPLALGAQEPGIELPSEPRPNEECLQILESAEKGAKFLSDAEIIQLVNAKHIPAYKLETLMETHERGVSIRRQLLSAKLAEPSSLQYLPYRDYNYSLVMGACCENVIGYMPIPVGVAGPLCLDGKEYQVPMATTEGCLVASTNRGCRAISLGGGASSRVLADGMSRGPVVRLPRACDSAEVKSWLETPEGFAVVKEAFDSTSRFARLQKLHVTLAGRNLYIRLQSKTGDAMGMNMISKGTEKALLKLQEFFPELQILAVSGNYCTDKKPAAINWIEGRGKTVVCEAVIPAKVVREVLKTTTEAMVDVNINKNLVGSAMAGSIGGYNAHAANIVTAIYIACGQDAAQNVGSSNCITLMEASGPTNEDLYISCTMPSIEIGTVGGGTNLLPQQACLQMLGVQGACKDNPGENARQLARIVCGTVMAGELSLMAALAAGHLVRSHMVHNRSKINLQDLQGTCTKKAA
# Test: intrinsic HMG-CoA reductase inhibition, in vitro protocol of J. Med. Chem., 28, p. 347-358 (1985)
# Assay type: biochemical
# Conditions: mevastatin assigned a value of 100; IC50 of test compound compared with that of mevastatin determined simultaneously
# Method: The intrinsic HMG-CoA reductase inhibition activity of the claimed compounds is measured in the in vitro protocol published in J. Med. Chem., 28, p. 347-358 (1985). […] Tabulated below for a number of the claimed compounds are relative potencies which are representative of the intrinsic HMG-CoA reductase inhibitory activities of the claimed compounds.
row,Molecule,Relative Potency
1,Cc1ccc(C)c(C(=O)O[C@H]2C[C@@H](C)C=C3C=C[C@H](C)[C@H](CC[C@@H]4C[C@@H](O)CC(=O)O4)[C@H]32)c1,67
2,"6(R)-[2-[8(S)-(2-isopropylbenzoyloxy)-2(S),6(R) -dimethyl-1,2,6,7,8,8a(R)-hexahydronaphthyl-1(S)]ethyl-4(R)-hydroxy-3,4,5,6-tetrahydro-2H-pyran-2-one",173
3,"6(R)-[2-[8(S)-(2-methylbenzoyloxy) -2(S),6(R) -dimethyl-1,2,6,7,8,8a(R) -hexahydronaphthyl-1(S)]ethyl]-4(R)-hydroxy -3,4,5,6-tetrahydro-2H-pyran-2-one",67
4,"6(R)-[2-[(8(S)-(2-chlorobenzoyloxy)-2-(S),6(R)-dimethyl-1,2,6,7,8,8a(R)-hexahydronaphthyl-1-(S)]ethyl]-4(R)-hydroxy-3,4,5,6-tetahydro-2H pyran-2-one",100

# Continued, values first:
row,Relative Potency,Molecule
1,54,"6(R)-[2-[8(S)-(2-methylthiobenzoyloxy)-2(S),6(R)-dimethyl-1,2,6,7,8,8a(R)- hexahydronaphthyl-1(S)]ethyl-4(R)-hydroxy-3,4,5,6-tetrahydro-2H-pyran-2-one"
2,87,"6(R)-[2-[8(S)-(2-trifluormethyl-benzoyloxy)-2(S),6(R)-dimethyl-1,2,6,7,8,8a(R)-hexa-hydronaphthyl-1(S)]ethyl]-4(R)-hydroxy-3,4,5,6-tetrahydro-2H-pyran-2-one"
